Results on one substance are retold here after US12403184B2, “Compositions and methods for treating neurodegenerative disroders” (priority 2018, dated 2025).

The test system of one assay is TFAM and mtDNA LSP. The assay is described as follows: TFAM-mtDNA binding assay (biotin-streptavidin pull down). The following applies: HdhQ111 cells, relative to TAT. The class given is cell-based, mouse. How it is done: Total lysates were isolated from cells with the indicated treatments, and then incubated with biotinylated LSP DNA probe (Biotin-LSP) or LSP (control) overnight at 4° C. Then streptavidin agarose beads (Thermo Fisher Scientific) were added for 1 h at 4° C. After incubation, the biotinstreptavidin complex was washed 3-5 times (1 ml/time) at 4° C. and subject to western blot analysis. To validate the LSP binding specificity to TFAM, 10 times (molar ratio) of non-labeled LSP was pre-incubated with an equal amount of lysate for 2 h prior to addition of the biotin-LSP probe.

The subject of assay [1] is HdhQ111 cells. Description: Mitochondrial superoxide production (MitoSOX) in striatal cells. Particulars: relative to TAT. The class given is cell-based, mouse. Here is the method: To examine mitochondrial superoxide production, the cells were stained with MitoSOX (Invitrogen, 5 μM for 10 min) at 37° C. The cells were then washed with PBS three times and mounted for the image analysis. At least 150 cells/group were counted and quantitated.

Assay [2] has as its system HdhQ111 cells. Description: Western blot of mitochondrial biogenesis and electron transport proteins in striatal cells. It counts as cell-based, mouse. Here is the method:
Mouse striatal cell lines HdhQ7 and Q111 cells are immortalized from knock-in mice carrying 7 and 111 CAG repeats, respectively, in the mouse htt gene. HdhQ7 and HdhQ111 purchased from CHDI Foundation were cultured in DMEM supplemented with 10% (v/v) heat-inactivated FBS, 1% (v/v) penicillin/streptomycin, and 400 μg/ml G418 at 33° C. with 5% CO2. Cells within 14 passages were used in all experiments.
(§1) Protein concentration was measured by protein assay dye reagents (Bio-rad). The protein was resuspended in Laemmli buffer, loaded on SDS-PAGE, and transferred onto nitrocellulose membranes. Membranes were probed with the indicated antibodies, followed by visualization with ECL. Representative blots have been cropped for presentation.
(In general: Immunoblotting shows a protein as a band on a membrane.)

The subject of assay [3] is striatum of R6/2 and YAC128 mice. The assay is described as follows: Western blot of striatal proteins in treated HD mice. The class given is in vivo, mouse. Particulars: for TFAM protein level / mtCO2 protein level: striatal mitochondria. How it is done: Cells were washed with cold phosphate-buffered saline (PBS) and incubated on ice in mitochondrial lysis buffer (250 mM sucrose, 20 mM HEPES-NaOH, pH 7.5, 10 mM KCl, 1.5 mM MgCl2, 1 mM EDTA, 1 mM EGTA, protease inhibitor cocktail, and phosphatase inhibitor cocktail) for 30 min. The cells were scraped and then disrupted 15 times by repeated aspiration through a 25-gauge needle. Mouse brains were minced and homogenized in mitochondrial lysis buffer to release mitochondria. The homogenates were spun at 800×g for 10 min at 4° C., and the resulting supernatants were spun at 12,000×g for 20 min at 4° C. The pellets were washed with lysis buffer and spun at 12,000×g again for 20 min at 4° C. The final pellets were suspended in lysis buffer containing 1% Triton X-100 and were mitochondrial-rich lysate fractions. The mitochondrial protein voltage-dependent anion channel (VDAC) was used as a loading control.
as §1
Systemic peptide treatment in HD mice. All randomization and peptide treatments were prepared by an experimenter not associated with behavioral and neuropathology analysis. Male R6/2 mice (Tg) and their age-matched wild-type littermates (Wt) (6-week-old) were implanted with a 28-day osmotic pump (Alzet, Cupertino CA, Model 2004) containing TAT control peptide or DA1 peptide, which delivered peptides at a rate of 1 mg/kg/day. Male YAC128 mice (Tg) and their age-matched wild-type littermates (WT) were treated with TAT control peptide or DA1 peptide (1 mg/kg/day) by Alzet osmotic pump starting from the age of 3 months. The pump was replaced once every month.

Assay [4] relates to mitochondrial fusion and fission-related proteins. The assay is described as follows: Total protein levels of mitochondrial dynamics proteins by western blot. It counts as cell-based. Here is the method: as §1
A further assay has as its target T1, Drp1/ATAD3A (Mus musculus, UniProt Q925I1).
T1 construct: The total lysates of cells or mouse striatum were subject to IP analysis; endogenous in cells; host or cells: HdhQ7 / HdhQ111 mouse striatal cells; wild-type mouse striatal cells exposed to 3-NP
T1 sequence (Q925I1 2-591 limits assumed): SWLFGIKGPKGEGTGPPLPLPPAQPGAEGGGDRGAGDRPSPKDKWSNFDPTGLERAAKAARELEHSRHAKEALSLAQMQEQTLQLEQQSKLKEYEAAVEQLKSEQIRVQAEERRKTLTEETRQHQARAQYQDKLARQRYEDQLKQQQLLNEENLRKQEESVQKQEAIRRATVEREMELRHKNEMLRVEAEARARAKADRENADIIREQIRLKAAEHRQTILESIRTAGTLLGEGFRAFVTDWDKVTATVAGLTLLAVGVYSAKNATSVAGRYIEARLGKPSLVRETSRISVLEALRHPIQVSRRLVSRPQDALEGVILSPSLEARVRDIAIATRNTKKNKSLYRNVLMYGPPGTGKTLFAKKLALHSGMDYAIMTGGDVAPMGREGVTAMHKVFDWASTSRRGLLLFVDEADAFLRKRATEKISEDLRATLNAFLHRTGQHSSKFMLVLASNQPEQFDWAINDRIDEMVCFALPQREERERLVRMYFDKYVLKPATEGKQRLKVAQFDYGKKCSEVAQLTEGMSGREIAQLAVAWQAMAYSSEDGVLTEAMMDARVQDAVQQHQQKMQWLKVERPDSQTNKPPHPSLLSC
The assay is described as follows: Immunoprecipitation of Drp1/ATAD3A binding in mouse striatal cells. It counts as cell-based. Here is the method: Cells and mouse brain tissues were harvested and lysed in total lysis buffer ([…], pH 7.9, […], […], 1% Triton X-100, and protease inhibitor cocktail) for 30 mins on ice and centrifuged at 12,000×g for 10 min at 4° C. The supernatants were incubated with the indicated primary antibodies or control IgG (sc-2025 and sc-2027, Santa Cruz Biotechnology) overnight at 4° C., followed by incubation with protein A/G beads (sc-2003, Santa Cruz Biotechnology) for 2 h at 4° C. The immunoprecipitates were washed with lysis buffer three times for a total of 30 min and then subject to WB analysis.

Assay [5] has as its system Drp1 with its mitochondrial adaptors Mff, Fis1 and MIEF1. The assay is described as follows: Immunoprecipitation of Drp1 with mitochondrial adaptors after crosslinking. It counts as cell-based, mouse. The following applies: HdhQ111 cells, 1 μM/day for 4 days. How it is done:
For Drp1-Mff or Drp-MiD51 (MIEF1) interaction, the cells were cross-linked by […] for 10 min at r.t., then […] in PBS was added to quench the redundant DSP activity. For Drp1-Fis1 interaction, the cells were cross-linked by 1% FA for 20 min at r.t., then added […] in PBS to quench the redundant activity. The cells were washed with PBS, sonicated, and lysed with 1% Triton X-100 total lysis buffer.

Setting [6] is: HdhQ111 cells, 1 μM/day for 4 days.
Setting [7] is: YAC128 mice, 12 months old, striatal extracts.

Where no end group is shown, it is not given here.

For the substance “YGRKKRRQRRRGGEDKRKT-NH2 [DA1, YGRKKRRQRRR-GG-EDKRKT-NH2]”, the “binding of TFAM and mtDNA” value in the assay on TFAM and mtDNA LSP is “restored”. In addition, the “mitochondrial oxidative stress (mitoROS)” value with HdhQ111 cells [1] is given as “suppressed”. Moreover, the “elevation of TFAM level by DA1 treatment” value in the assay with HdhQ111 cells [2] (HD mutant cells with ATAD3A knockdown (siRNA)) was “ATAD3A knockdown abolished”. Also, the “nuclear-encoded mitochondrial respiratory chain components” value in the assay on HdhQ111 cells [2] (HdhQ111 cells) is reported as “no effect”. In the assay with HdhQ111 cells [2] (setting [6]), the PGC1α level entry is listed as “restored”, the TFAM level result is given as “restored” and the mtCO2 protein level result is reported as “corrected”. In assay [3] (R6/2 mice, 12 weeks old), the TFAM protein level result is on record as “corrected” and the mtCO2 protein level entry is “corrected”. Further, the nuclear-encoded mitochondrial proteins result in assay [3] (YAC128 and wildtype mice, 6 months old, striatal mitochondrial lysates) is listed as “no observable effects”. For the same substance, in assay [3] (YAC128 mice, 6 months old), the TFAM protein level result is given as “corrected” and the mtCO2 protein level result is given as “corrected”. In assay [3] (setting [7]), the DARPP-32 protein level entry is given as “increased” and the PSD95 protein level entry was “increased”. For the same substance, in assay [3] (YAC128 mouse striatum, until 12 months of age), the PGC1α protein levels result is on record as “increased”. Besides, the “other mitochondrial fusion and fission-related proteins (total protein levels)” value in assay [4] is given as “did not affect”. The “binding of Drp1/ATAD3A” value at Drp1/ATAD3A (HdhQ111 cells, peptide 1 μM/day for 4 days, vs TAT) is recorded as “significantly reduced”. In addition, the “binding of Drp1/ATAD3A” value on Drp1/ATAD3A (wildtype mouse striatal cells exposed to 3-NP (5 mM for 4 hours), DA1 1 μM overnight) is on record as “significantly reduced”. The “interactions of Drp1 with its mitochondrial adaptors Mff, Fis1 and MIEF1” value in assay [5] was “did not influence”.
